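Cultured in 96-well plates, cells were exposed to test compound for 48 hours across five concentrations. Abbreviation: GI50, concentration required for 50% inhibition of growth. TGI: concentration producing complete growth inhibition.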
Assays:
Test in all cases: growth of human tumour cells (NCI), 48 h
M14 melanoma = tested on: M14 melanoma
COLO 205 colon = tested on: COLO 205 colon
HS 578T breast = tested on: HS 578T breast
OVCAR-4 ovarian = tested on: OVCAR-4 ovarian
MDA-MB-435 = tested on: MDA-MB-435
DU-145 prostate = tested on: DU-145 prostate
UACC-62 melanoma = tested on: UACC-62 melanoma
EKVX NSCLC = tested on: EKVX NSCLC
OVCAR-8 ovarian = tested on: OVCAR-8 ovarian
OVCAR-3 ovarian = tested on: OVCAR-3 ovarian

| SMILES | GI50 (M14 melanoma) | TGI (M14 melanoma) | GI50 (COLO 205 colon) | TGI (COLO 205 colon) | GI50 (HS 578T breast) | TGI (HS 578T breast) | GI50 (OVCAR-4 ovarian) | TGI (OVCAR-4 ovarian) | GI50 (MDA-MB-435) | TGI (MDA-MB-435) | GI50 (DU-145 prostate) | TGI (DU-145 prostate) | GI50 (UACC-62 melanoma) | TGI (UACC-62 melanoma) | GI50 (EKVX NSCLC) | TGI (EKVX NSCLC) | GI50 (OVCAR-8 ovarian) | TGI (OVCAR-8 ovarian) | GI50 (OVCAR-3 ovarian) | TGI (OVCAR-3 ovarian) |
| --- | --- | --- | --- | --- | --- | --- | --- | --- | --- | --- | --- | --- | --- | --- | --- | --- | --- | --- | --- | --- |
| C=CCC(N[C@@H](CO)c1ccccc1)c1cn(Cc2ccccc2Cl)c(=O)n(Cc2ccccc2Cl)c1=O (some centres not stated) | > 100 µM | > 100 µM | > 100 µM | > 100 µM | > 100 µM | > 100 µM | > 100 µM | > 100 µM | > 100 µM | > 100 µM | > 100 µM | > 100 µM | 82.2 µM | > 100 µM | > 100 µM | > 100 µM | > 100 µM | > 100 µM | > 100 µM | > 100 µM |
| COc1ccc(/C=C(/C(=O)N2CCN(c3ccccc3)CC2)c2cc(OC)c(OC)c(OC)c2)cc1N | 0.254 µM | 3.58 µM | 0.362 µM | 2.43 µM | 0.357 µM | > 100 µM | 3.05 µM | > 100 µM | 0.138 µM | 0.419 µM | 0.531 µM | > 100 µM | 0.272 µM | > 100 µM | 0.561 µM | > 100 µM | 0.375 µM | > 100 µM | 0.366 µM | > 100 µM |
| O=C1c2[nH]cc(CNC3CN4CCC3CC4)c2C(=O)c2c1c(O)c1ccccc1c2O (configuration not stated) | 3.11 µM | 11.7 µM | 2.05 µM | 9.56 µM | 26.6 µM | 77.5 µM | 16.3 µM | 55.7 µM | 1.4 µM | 2.76 µM | 0.714 µM | 7.21 µM | 14.9 µM | 37.6 µM | 16.1 µM | 33.1 µM | 17.6 µM | > 100 µM | 1.01 µM | 2.22 µM |
| CC[C@H](NC(=O)[C@H]1CCCCN1C)C(=O)N(C)[C@H](C[C@@H](OC(C)=O)c1nc(C(=O)N[C@@H](Cc2ccccc2)C[C@H](C)C(=O)O)cs1)C(C)C | 0.00244 µM | 0.00969 µM | 0.00396 µM | 0.0499 µM | 0.00643 µM | > 14.3 µM | 0.0326 µM | > 14.3 µM | < 0.00143 µM | 0.00391 µM | 0.00425 µM | > 4.64 µM | 0.00161 µM | > 14.3 µM | 0.01 µM | > 14.3 µM | 0.0166 µM | > 14.3 µM | < 0.00143 µM | 0.0286 µM |
| Cc1cc(Cl)cc2c(N=Nc3ccc(S(N)(=O)=O)cc3)c(O)[nH]c12 | > 25 µM | > 25 µM | > 25 µM | > 25 µM | > 25 µM | > 25 µM | > 25 µM | > 25 µM | > 25 µM | > 25 µM | > 25 µM | > 25 µM | > 25 µM | > 25 µM | > 25 µM | > 25 µM | > 25 µM | > 25 µM | > 25 µM | > 25 µM |
| Nc1ccccc1NC(=O)c1ccc(CNc2nccc(-c3cccnc3)n2)cc1 | 1.03 µM | 4.18 µM | 0.626 µM | 2.06 µM | 1.06 µM | > 100 µM | 1.43 µM | > 28.3 µM | 0.299 µM | 1.25 µM | 1.45 µM | > 100 µM | 0.476 µM | 2.17 µM | 1.36 µM | > 59.1 µM | 0.541 µM | > 100 µM | 1.33 µM | 4.62 µM |
| CCOC(=O)C1=C(C)N=c2s/c(=C\c3ccccc3O)c(=O)n2C1c1ccc(OC)c2ccccc12 (configuration not stated) |  |  | 30.8 µM | > 100 µM | 2.95 µM | 13.4 µM | 2.01 µM | 5.18 µM | 13.1 µM | > 100 µM | 8.3 µM | 32 µM | 40.7 µM | > 100 µM |  |  | 5.35 µM | 22 µM | 3.04 µM | 7.83 µM |
| CN(C)c1ccc(/C=C/c2ccnc3c(O)cccc23)cc1 | 0.304 µM | 1.58 µM | 18.5 µM | > 100 µM | 0.85 µM | > 100 µM | 0.404 µM | > 100 µM | 0.455 µM | > 100 µM | 0.626 µM | > 100 µM | 0.294 µM | 1.07 µM |  |  | 0.352 µM | > 100 µM | 0.462 µM | > 100 µM |
| O=C(O)/C=C/C(=O)N1Cc2cc3ccccc3nc2C1 |  | > 100 µM |  | > 100 µM |  | > 100 µM |  |  |  | > 100 µM |  | > 100 µM |  | > 100 µM |  | > 100 µM |  | > 100 µM |  | > 100 µM |
| C=C1CC2CCCC12C=O (configuration not stated) |  | > 10 µM |  | > 10 µM |  | > 10 µM |  | > 10 µM |  | > 10 µM |  | > 10 µM |  | > 10 µM |  |  |  | > 10 µM |  | > 10 µM |
